From the NIST ThermoML archive (doi:10.1016/j.fluid.2014.01.019)
Numbers after ± are expanded uncertainties.

Assay: xn = mol fraction of the nth substance listed
Details: 101 kPa, Liquid; for mass density: Vibrating tube method; for speed of sound: Frequency=2 MHz, Linear variable-path acoustic interferometer

Cc1cccc(Cl)c1 [3-chlorotoluene] + OCc1ccccc1
Details	mass density, 298.15 K [kg/m3]	mass density, 303.15 K [kg/m3]	mass density, 308.15 K [kg/m3]	mass density, 313.15 K [kg/m3]	speed of sound, 303.15 K [m/s]	speed of sound, 313.15 K [m/s]
x2 = 0.0583	1065.82 ± 0.15	1061.18 ± 0.15	1056.8 ± 0.15	1052.23 ± 0.15	1298 ± 8	1294 ± 8
x2 = 0.1107	1064.36 ± 0.15	1059.84 ± 0.15	1055.47 ± 0.15	1050.83 ± 0.15	1316 ± 8	1304 ± 8
x2 = 0.1903	1062.34 ± 0.15	1057.86 ± 0.15	1053.42 ± 0.15	1048.82 ± 0.15	1340 ± 8	1321 ± 8
x2 = 0.2401	1061.05 ± 0.15	1056.6 ± 0.15	1052.17 ± 0.15	1047.95 ± 0.15	1356 ± 8	1331 ± 8
x2 = 0.3028	1059.47 ± 0.15	1055.2 ± 0.15	1050.6 ± 0.15	1046.35 ± 0.15	1374 ± 8	1343 ± 8
x2 = 0.3703	1057.61 ± 0.15	1053.44 ± 0.15	1048.89 ± 0.15	1044.54 ± 0.15	1394 ± 9	1356 ± 8
x2 = 0.4442	1055.83 ± 0.15	1051.49 ± 0.15	1047.05 ± 0.15	1042.9 ± 0.15	1414 ± 9	1371 ± 8
x2 = 0.5405	1053.04 ± 0.15	1049.21 ± 0.15	1044.67 ± 0.15	1040.69 ± 0.14	1440 ± 9	1389 ± 8
x2 = 0.6285	1050.88 ± 0.15	1046.99 ± 0.15	1042.53 ± 0.15	1038.52 ± 0.14	1462 ± 9	1409 ± 9
x2 = 0.7019	1049.03 ± 0.15	1045.09 ± 0.15	1040.75 ± 0.14	1036.95 ± 0.14	1477 ± 9	1422 ± 9
x2 = 0.7558	1047.64 ± 0.15	1043.62 ± 0.15	1039.43 ± 0.14	1035.23 ± 0.14	1487 ± 9	1435 ± 9
x2 = 0.8109	1046.31 ± 0.15	1042.35 ± 0.14	1038.15 ± 0.14	1034.05 ± 0.14	1494 ± 9	1446 ± 9
x2 = 0.8546	1045.2 ± 0.14	1041.4 ± 0.14	1037.11 ± 0.14	1033.02 ± 0.14	1501 ± 9	1455 ± 9
x2 = 0.8946	1044.04 ± 0.14	1040.31 ± 0.14	1036.18 ± 0.14	1032.43 ± 0.14	1504 ± 9	1462 ± 9
x2 = 0.9498	1042.49 ± 0.14	1038.83 ± 0.14	1034.89 ± 0.14	1030.91 ± 0.14	1510 ± 9	1474 ± 9

Cc1cccc([N+](=O)[O-])c1 [3-nitrotoluene] + OCc1ccccc1
Details	mass density, 298.15 K [kg/m3]	mass density, 303.15 K [kg/m3]	mass density, 308.15 K [kg/m3]	mass density, 313.15 K [kg/m3]	speed of sound, 303.15 K [m/s]	speed of sound, 313.15 K [m/s]
x2 = 0.0537	1146.83 ± 0.18	1141.95 ± 0.18	1137.26 ± 0.18	1132.52 ± 0.18	1446 ± 9	1414 ± 9
x2 = 0.1225	1139.74 ± 0.18	1134.93 ± 0.18	1130.25 ± 0.18	1125.57 ± 0.17	1451 ± 9	1419 ± 9
x2 = 0.1914	1132.59 ± 0.18	1127.81 ± 0.18	1123.19 ± 0.17	1118.56 ± 0.17	1456 ± 9	1424 ± 9
x2 = 0.2356	1127.96 ± 0.18	1123.23 ± 0.17	1118.65 ± 0.17	1114.02 ± 0.17	1459 ± 9	1427 ± 9
x2 = 0.2992	1121.25 ± 0.17	1116.57 ± 0.17	1112.02 ± 0.17	1107.46 ± 0.17	1464 ± 9	1432 ± 9
x2 = 0.3717	1113.52 ± 0.17	1108.89 ± 0.17	1104.4 ± 0.17	1099.9 ± 0.17	1469 ± 9	1438 ± 9
x2 = 0.4567	1104.33 ± 0.17	1099.76 ± 0.17	1095.34 ± 0.16	1090.91 ± 0.16	1476 ± 9	1444 ± 9
x2 = 0.5413	1095.03 ± 0.16	1090.53 ± 0.16	1086.18 ± 0.16	1081.85 ± 0.16	1481 ± 9	1452 ± 9
x2 = 0.6035	1088.09 ± 0.16	1083.66 ± 0.16	1079.37 ± 0.16	1075.08 ± 0.16	1486 ± 9	1456 ± 9
x2 = 0.6539	1082.39 ± 0.16	1078.02 ± 0.16	1073.77 ± 0.16	1069.5 ± 0.15	1490 ± 9	1460 ± 9
x2 = 0.7023	1076.86 ± 0.16	1072.56 ± 0.16	1068.36 ± 0.15	1064.17 ± 0.15	1494 ± 9	1463 ± 9
x2 = 0.7437	1072.1 ± 0.16	1067.84 ± 0.15	1063.65 ± 0.15	1059.52 ± 0.15	1496 ± 9	1467 ± 9
x2 = 0.8121	1064.1 ± 0.15	1059.94 ± 0.15	1055.82 ± 0.15	1051.76 ± 0.15	1502 ± 9	1472 ± 9
x2 = 0.8556	1058.96 ± 0.15	1054.85 ± 0.15	1050.78 ± 0.15	1046.79 ± 0.15	1505 ± 9	1475 ± 9
x2 = 0.9354	1049.37 ± 0.15	1045.39 ± 0.15	1041.41 ± 0.15	1037.5 ± 0.14	1511 ± 9	1481 ± 9

Cc1ccc(Cl)cc1 [4-chlorotoluene] + OCc1ccccc1
Details	mass density, 298.15 K [kg/m3]	mass density, 303.15 K [kg/m3]	mass density, 308.15 K [kg/m3]	mass density, 313.15 K [kg/m3]	speed of sound, 303.15 K [m/s]	speed of sound, 313.15 K [m/s]
x2 = 0.0509	1063.78 ± 0.16	1058.47 ± 0.15	1053.11 ± 0.15	1048.16 ± 0.15	1292 ± 8	1248 ± 8
x2 = 0.1252	1062.11 ± 0.16	1056.85 ± 0.15	1051.49 ± 0.15	1046.61 ± 0.15	1327 ± 8	1265 ± 8
x2 = 0.1878	1060.69 ± 0.15	1055.5 ± 0.15	1050.13 ± 0.15	1045.28 ± 0.15	1350 ± 8	1281 ± 8
x2 = 0.2309	1059.7 ± 0.15	1054.46 ± 0.15	1049.19 ± 0.15	1044.4 ± 0.15	1370 ± 8	1288 ± 8
x2 = 0.3028	1058.05 ± 0.15	1052.76 ± 0.15	1047.63 ± 0.15	1042.92 ± 0.15	1394 ± 9	1307 ± 8
x2 = 0.3649	1056.62 ± 0.15	1051.58 ± 0.15	1046.32 ± 0.15	1041.65 ± 0.15	1415 ± 9	1325 ± 8
x2 = 0.4393	1054.9 ± 0.15	1049.98 ± 0.15	1044.75 ± 0.15	1040.17 ± 0.15	1439 ± 9	1343 ± 8
x2 = 0.5424	1052.48 ± 0.15	1047.59 ± 0.15	1042.61 ± 0.15	1038.12 ± 0.15	1468 ± 9	1369 ± 8
x2 = 0.6094	1050.91 ± 0.15	1046.21 ± 0.15	1041.23 ± 0.15	1036.83 ± 0.14	1480 ± 9	1387 ± 9
x2 = 0.6598	1049.71 ± 0.15	1045.06 ± 0.15	1040.21 ± 0.15	1035.88 ± 0.14	1493 ± 9	1399 ± 9
x2 = 0.7028	1048.68 ± 0.15	1044.09 ± 0.15	1039.35 ± 0.15	1035.06 ± 0.14	1502 ± 9	1410 ± 9
x2 = 0.7557	1047.41 ± 0.15	1042.91 ± 0.15	1038.31 ± 0.14	1034.1 ± 0.14	1506 ± 9	1423 ± 9
x2 = 0.8153	1045.97 ± 0.15	1041.58 ± 0.15	1037.16 ± 0.14	1033.02 ± 0.14	1511 ± 9	1437 ± 9
x2 = 0.8539	1045.04 ± 0.15	1040.74 ± 0.15	1036.42 ± 0.14	1032.32 ± 0.14	1513 ± 9	1448 ± 9
x2 = 0.9235	1043.33 ± 0.14	1039.23 ± 0.14	1035.1 ± 0.14	1031.15 ± 0.14	1514 ± 9	1465 ± 9
